Measurements: PubChem BioAssay (NCI)
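Protocol summary: plate cells (96-well), add compound at 5 concentrations, incubate 48 h, interpolate endpoints linearly. The concentration for full growth arrest is given as TGI.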

How the values were obtained:
Assay in all cases: NCI anticancer screen, dose series, 48 h
[1] = test system: HCT-15 colon
[2] = test system: HL-60(TB) leukemia
[3] = test system: HOP-62 NSCLC
[4] = test system: K-562 leukemia
[5] = test system: KM12 colon
[6] = test system: NCI-H522 lung
[7] = test system: OVCAR-4 ovarian
[8] = test system: RPMI-8226 leukemia
[9] = test system: SF-268 CNS
[10] = test system: SK-MEL-28 melanoma
[11] = test system: SK-MEL-5 melanoma
[12] = test system: SK-OV-3 ovarian
[13] = test system: SNB-19 CNS
[14] = test system: SW-620 colon
[15] = test system: TK-10 renal
[16] = test system: DU-145 prostate
[17] = test system: MDA-MB-231 breast
[18] = test system: MDA-MB-435
[19] = test system: MDA-N
[20] = test system: PC-3 prostate

Measured: TGI

OC12c3ccccc3C1CCCCCCCCCC21OCCCO1 (stereo not drawn)
not listed: [16] | [17] | [18] | [19] | [20]
> 100 µM: all other assays above

CCOC(=O)c1csc(NC(=O)CN2CCCCC2)n1
not listed: [6]
> 100 µM: all other assays above

COc1cccc(N2C(=O)CSC2c2c[nH]c3ccccc23)c1 (stereo not drawn)
not listed: [8]
> 100 µM: all other assays above

O=S(=O)(O)c1cccc2ccc(O)c(N=Nc3ccc(S(=O)(=O)c4ccc(N=Nc5c(O)ccc6cccc(S(=O)(=O)O)c56)cc4)cc3)c12
> 100 µM: all assays above
